According to ChEMBL document CHEMBL1201862, “PubChem BioAssay data set” (2004):
Active and inactive are the calls of the source.

What was measured:
[1] = molecular target: SWI/SNF-related matrix-associated actin-dependent regulator of chromatin subfamily A member 2 (Homo sapiens, UniProt P51531); test: Luminescence-based cell-based high throughput dose response assay to identify activators of the function of SWI/SNF related, matrix associated, actin dependent regulator of chromatin, subfamily a, member 2 (SMARCA2, BRM).; assay type: functional
Sequence of SWI/SNF-related matrix-associated actin-dependent regulator of chromatin subfamily A member 2 (P51531 whole entry): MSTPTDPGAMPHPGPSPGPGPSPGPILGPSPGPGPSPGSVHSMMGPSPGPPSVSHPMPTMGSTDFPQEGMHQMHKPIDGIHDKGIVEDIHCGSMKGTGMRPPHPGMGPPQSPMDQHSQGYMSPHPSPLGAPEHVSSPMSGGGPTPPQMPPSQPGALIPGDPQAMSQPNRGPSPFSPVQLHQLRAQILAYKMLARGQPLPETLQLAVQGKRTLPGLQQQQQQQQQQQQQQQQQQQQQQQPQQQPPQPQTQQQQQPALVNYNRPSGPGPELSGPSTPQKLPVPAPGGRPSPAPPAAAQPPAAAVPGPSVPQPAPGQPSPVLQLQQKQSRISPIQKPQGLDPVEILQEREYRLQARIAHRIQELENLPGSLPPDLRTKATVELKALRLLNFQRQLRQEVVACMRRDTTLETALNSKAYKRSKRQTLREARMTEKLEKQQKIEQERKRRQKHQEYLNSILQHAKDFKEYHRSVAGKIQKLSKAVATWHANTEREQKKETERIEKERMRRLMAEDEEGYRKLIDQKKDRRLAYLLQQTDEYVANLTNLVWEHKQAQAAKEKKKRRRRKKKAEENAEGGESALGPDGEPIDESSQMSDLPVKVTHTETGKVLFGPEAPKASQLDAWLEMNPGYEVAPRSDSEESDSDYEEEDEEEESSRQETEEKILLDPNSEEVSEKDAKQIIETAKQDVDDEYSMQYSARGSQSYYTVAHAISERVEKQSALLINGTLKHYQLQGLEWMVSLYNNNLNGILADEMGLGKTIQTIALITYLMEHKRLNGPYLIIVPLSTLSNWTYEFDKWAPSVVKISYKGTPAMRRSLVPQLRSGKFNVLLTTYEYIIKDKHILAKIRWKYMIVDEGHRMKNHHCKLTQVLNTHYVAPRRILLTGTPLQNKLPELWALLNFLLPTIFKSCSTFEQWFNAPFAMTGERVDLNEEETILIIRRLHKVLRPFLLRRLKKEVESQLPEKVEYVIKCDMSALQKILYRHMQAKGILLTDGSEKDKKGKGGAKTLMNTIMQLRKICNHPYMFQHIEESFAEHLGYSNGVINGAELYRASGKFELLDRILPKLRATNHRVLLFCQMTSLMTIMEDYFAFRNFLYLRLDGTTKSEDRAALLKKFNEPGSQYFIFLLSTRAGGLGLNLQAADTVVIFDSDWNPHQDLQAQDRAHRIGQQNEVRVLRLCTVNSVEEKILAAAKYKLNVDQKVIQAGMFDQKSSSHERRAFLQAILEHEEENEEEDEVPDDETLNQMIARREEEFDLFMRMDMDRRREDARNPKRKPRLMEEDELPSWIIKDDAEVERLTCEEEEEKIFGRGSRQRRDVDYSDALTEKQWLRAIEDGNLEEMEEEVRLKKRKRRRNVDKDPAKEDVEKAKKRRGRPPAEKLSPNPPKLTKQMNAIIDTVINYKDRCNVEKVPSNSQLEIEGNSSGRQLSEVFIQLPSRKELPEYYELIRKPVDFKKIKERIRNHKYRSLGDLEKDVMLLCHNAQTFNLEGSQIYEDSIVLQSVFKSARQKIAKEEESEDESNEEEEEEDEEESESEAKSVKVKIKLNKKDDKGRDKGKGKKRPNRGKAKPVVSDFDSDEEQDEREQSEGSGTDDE

[2] = Counterscreen for activators of the function of SWI/SNF related, matrix associated, actin dependent regulator of chromatin, subfamily a, member 2 (SMARCA2, BRM): Luminescence-based cell-based high throughput dose response assay to identify non-selective compounds using the VP16 reporter assay.; assay type: functional
[3] = molecular target: T1, Probable nicotinate-nucleotide adenylyltransferase (Staphylococcus aureus (strain N315), UniProt P65502); assay type: functional, Staphylococcus aureus subsp. aureus N315;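 for IC50 Mean: confirmatory dose-response retesting of NadD inhibitor hits first found in an ultra-high-throughput screen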
T1 sequence (P65502 whole entry): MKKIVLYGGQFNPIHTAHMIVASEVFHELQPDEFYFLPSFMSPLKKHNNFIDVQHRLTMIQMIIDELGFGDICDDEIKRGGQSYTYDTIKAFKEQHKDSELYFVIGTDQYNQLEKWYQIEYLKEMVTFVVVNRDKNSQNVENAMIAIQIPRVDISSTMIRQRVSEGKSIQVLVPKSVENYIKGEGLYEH

[4] = molecular target: T1, Probable nicotinate-nucleotide adenylyltransferase; assay type: functional, Staphylococcus aureus subsp. aureus N315; settings: read-out: IC50_Mean
[5] = AlphaScreen signal interference compounds, dose response, artefact control for ARNT-TACC3 interaction inhibitor project, biochemical, luminescence, cherry-pick (AID 651705); assay type: functional;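 note: AlphaScreen bead proximity signal that flags compounds interfering with the detection technology; potency reflects signal decrease which marks the compound as an assay artifact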
cells = assay type: functional, cell-based
[6] = molecular target: Nuclear receptor subfamily 0 group B member 1 (Homo sapiens, UniProt P51843); assay type: functional, cell-based;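 note: HEK293T cells transfected with SF-1 and DAX-1 plus StAR promoter luciferase reporter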
Sequence of Nuclear receptor subfamily 0 group B member 1 (P51843 whole entry): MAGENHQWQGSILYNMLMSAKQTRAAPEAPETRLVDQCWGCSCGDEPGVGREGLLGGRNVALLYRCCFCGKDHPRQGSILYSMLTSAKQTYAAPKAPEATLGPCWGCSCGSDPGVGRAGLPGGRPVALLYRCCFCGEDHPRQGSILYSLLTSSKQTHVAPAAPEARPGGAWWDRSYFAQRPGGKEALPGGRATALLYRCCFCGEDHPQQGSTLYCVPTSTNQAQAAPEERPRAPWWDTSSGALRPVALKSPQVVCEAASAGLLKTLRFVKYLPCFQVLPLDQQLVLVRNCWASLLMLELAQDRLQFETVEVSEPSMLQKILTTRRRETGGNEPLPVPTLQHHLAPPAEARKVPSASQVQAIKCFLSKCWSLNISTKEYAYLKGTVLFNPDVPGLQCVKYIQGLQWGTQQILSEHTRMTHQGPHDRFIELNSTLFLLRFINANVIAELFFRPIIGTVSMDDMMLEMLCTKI

Albumin = Albumin (Bos taurus, UniProt P02769); test: Counterscreen for inhibitors of T-cell receptor (TCR)-CD3 interaction: Fluorescence-based biochemical high throughput dose response assay to identify inhibitors of T-cell receptor (TCR)-CD3 interaction using a TAMRA-labeled BSA probe.; assay type: functional
Sequence of Albumin (P02769 whole entry): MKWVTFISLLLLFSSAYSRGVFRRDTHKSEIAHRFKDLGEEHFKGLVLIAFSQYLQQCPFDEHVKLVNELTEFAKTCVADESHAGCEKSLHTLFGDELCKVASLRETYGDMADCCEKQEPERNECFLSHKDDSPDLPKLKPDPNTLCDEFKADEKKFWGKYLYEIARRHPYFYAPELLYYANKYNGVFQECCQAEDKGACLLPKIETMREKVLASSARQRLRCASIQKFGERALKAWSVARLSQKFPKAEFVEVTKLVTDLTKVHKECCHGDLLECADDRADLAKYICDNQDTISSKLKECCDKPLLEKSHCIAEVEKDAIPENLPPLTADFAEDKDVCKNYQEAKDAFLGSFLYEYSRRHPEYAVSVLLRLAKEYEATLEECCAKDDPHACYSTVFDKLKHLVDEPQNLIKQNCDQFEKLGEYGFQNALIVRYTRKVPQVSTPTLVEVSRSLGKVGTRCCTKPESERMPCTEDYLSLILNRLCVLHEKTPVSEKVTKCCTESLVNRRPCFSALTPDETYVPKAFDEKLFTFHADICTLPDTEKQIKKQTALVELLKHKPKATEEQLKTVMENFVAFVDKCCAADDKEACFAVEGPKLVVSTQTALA

[7] = Luminescent dose response cell-based high throughput screening assay for inhibitors of the Janus kinase 2 mutant JAK2V617F. [Related pubchem assays: 1446 (Primary screen.), 1521 (Confirmation assay.), 1486 (Counter screen.)]; assay type: functional
[8] = molecular target: T2, Microphthalmia-associated transcription factor (Homo sapiens, UniProt O75030); test: TRPM1 promoter luciferase signal decrease, dose response, MITF inhibitor project, cell-based, SK-MEL-5, cherry-picked, set 3 (AID 493073); assay type: functional
T2 sequence (O75030 whole entry): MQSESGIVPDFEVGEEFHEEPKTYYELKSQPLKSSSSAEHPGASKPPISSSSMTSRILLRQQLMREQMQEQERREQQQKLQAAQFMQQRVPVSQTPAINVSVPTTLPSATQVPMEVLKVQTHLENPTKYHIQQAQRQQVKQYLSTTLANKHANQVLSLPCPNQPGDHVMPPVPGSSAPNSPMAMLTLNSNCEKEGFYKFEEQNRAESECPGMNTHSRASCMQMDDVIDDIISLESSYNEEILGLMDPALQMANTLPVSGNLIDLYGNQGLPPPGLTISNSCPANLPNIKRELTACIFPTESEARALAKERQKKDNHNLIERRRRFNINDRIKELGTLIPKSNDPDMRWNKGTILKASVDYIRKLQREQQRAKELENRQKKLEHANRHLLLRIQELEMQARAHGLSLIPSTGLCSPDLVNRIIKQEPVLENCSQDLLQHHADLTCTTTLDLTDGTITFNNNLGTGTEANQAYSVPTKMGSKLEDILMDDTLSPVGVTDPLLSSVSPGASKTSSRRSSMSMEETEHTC

INS1 = test: beta cell apoptosis inhibitors, cytokine rescue, dose response, luminescence, retest (AID 449756); assay type: functional, cell-based; settings: Rattus norvegicus;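 note: cell death triggered by IL-1 beta plus TNF-alpha plus IFN-gamma mixture; protective hits raise ATP signal compared with cytokine alone wells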
A-375 = test: A375 melanoma cell viability reduction, dose response, counter-screen for MITF modulator project, cherry-pick samples, set 2 (AID 540335); assay type: functional, cell-based; settings: Homo sapiens
[9] = molecular target: 26S proteasome non-ATPase regulatory subunit 14 (Homo sapiens, UniProt O00487); test: inhibition of proteasome subunit RPN11 – biochemical, fluorescence polarization, uHTS hits, confirmation (AID 602368); assay type: functional
Sequence of 26S proteasome non-ATPase regulatory subunit 14 (O00487 whole entry): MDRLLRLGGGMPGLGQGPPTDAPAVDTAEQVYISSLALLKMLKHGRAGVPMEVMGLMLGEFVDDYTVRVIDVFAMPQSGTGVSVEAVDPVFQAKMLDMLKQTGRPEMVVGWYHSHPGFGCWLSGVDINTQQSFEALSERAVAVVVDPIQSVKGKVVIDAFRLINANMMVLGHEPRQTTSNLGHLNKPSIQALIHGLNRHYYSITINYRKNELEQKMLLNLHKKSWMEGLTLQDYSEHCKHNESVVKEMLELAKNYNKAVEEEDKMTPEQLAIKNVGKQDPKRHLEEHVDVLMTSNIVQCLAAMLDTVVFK

[10] = molecular target: 72 kDa type IV collagenase (Homo sapiens, UniProt P08253); test: Dose Response validation of uHTS RPN11 inhibitor hits using a MMP-2 Fluorescence assay.; assay type: functional
Sequence of 72 kDa type IV collagenase (P08253 whole entry): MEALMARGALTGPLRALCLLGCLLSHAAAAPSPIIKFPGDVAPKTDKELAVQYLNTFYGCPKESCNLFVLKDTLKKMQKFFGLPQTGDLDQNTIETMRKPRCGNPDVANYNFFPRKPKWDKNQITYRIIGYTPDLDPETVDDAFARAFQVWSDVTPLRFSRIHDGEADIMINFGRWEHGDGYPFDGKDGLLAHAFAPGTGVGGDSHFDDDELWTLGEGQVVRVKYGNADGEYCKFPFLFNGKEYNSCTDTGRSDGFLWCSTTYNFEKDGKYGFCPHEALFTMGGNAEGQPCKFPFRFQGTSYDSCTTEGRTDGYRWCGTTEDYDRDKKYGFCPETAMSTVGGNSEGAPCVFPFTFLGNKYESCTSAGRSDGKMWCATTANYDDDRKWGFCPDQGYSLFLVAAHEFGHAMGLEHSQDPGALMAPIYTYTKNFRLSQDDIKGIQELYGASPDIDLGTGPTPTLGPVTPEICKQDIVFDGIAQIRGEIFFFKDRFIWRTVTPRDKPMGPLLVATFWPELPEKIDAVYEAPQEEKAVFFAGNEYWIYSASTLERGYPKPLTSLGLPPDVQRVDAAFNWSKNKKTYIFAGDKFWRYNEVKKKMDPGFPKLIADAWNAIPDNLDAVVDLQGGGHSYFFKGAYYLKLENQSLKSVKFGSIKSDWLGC

Prothrombin = Prothrombin (Bos taurus, UniProt P00735); test: thrombin inhibition, dose response, biochemical, fluorescence polarization, uHTS hits (AID 602369); assay type: functional
[11] = molecular target: T3, Methionyl-tRNA synthetase, putative (Trypanosoma brucei brucei, UniProt Q38C91); assay type: functional, Trypanosoma brucei brucei strain 927/4 GUTat10.1
T3 sequence (Q38C91 whole entry): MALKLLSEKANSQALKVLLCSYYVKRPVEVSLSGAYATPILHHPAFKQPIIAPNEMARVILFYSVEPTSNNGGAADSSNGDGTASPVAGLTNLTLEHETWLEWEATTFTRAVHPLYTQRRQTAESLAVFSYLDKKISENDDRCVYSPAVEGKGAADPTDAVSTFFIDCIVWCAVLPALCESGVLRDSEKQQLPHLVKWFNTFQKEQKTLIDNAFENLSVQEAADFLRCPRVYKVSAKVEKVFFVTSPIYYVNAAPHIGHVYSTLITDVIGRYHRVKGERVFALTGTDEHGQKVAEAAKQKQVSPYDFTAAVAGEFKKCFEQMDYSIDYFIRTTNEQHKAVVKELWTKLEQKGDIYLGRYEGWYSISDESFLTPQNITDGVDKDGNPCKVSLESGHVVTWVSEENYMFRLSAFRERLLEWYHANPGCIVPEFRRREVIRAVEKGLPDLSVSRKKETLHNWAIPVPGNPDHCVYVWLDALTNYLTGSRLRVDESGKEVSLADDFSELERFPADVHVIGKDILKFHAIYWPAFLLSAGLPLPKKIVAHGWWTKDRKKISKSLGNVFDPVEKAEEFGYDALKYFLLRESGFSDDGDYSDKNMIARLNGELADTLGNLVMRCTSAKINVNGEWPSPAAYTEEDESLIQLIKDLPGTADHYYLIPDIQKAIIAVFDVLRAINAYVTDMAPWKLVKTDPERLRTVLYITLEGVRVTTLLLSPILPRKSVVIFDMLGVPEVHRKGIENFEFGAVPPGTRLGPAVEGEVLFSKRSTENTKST

[12] = Counterscreen for inhibitors of Trypanosoma brucei methionyl tRNA synthetase (MetRS): Luminescence-based cell-based high throughput dose response assay to identify compounds that are cytotoxic to Jurkat human T lymphocyte cells.; assay type: functional
[13] = molecular target: T3, Methionyl-tRNA synthetase, putative; assay type: functional, Trypanosoma brucei brucei strain 927/4 GUTat10.1; remark: listed apart in the source
Large T antigen = Large T antigen (Simian virus 40, UniProt P03070); assay type: functional, Betapolyomavirus macacae;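 note: Confirmatory-stage PubChem screen for compounds that inhibit SV40 T antigen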
Sequence of Large T antigen (P03070 whole entry): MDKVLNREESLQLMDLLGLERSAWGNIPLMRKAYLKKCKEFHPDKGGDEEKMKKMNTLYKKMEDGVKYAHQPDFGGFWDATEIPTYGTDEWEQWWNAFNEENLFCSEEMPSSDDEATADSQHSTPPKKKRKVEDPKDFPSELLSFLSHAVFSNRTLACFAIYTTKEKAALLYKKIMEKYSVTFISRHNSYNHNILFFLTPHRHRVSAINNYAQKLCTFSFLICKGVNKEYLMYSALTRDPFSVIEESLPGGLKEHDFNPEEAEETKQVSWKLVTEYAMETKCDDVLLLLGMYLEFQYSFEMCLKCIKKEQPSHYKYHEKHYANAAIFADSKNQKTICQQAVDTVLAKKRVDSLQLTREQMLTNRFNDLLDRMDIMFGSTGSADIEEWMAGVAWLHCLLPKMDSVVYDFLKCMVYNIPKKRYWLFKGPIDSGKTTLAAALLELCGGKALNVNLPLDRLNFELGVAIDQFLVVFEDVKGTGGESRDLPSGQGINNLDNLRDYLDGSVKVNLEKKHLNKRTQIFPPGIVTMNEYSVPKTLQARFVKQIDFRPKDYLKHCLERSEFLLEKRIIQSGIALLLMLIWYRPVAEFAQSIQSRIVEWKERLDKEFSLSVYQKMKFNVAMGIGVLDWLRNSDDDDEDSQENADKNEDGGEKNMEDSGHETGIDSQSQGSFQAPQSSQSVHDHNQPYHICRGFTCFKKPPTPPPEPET

[14] = Luminescence Cell-Based Dose Retest to Confirm Inhibitors of Cancer Stem Cells. [Related pubchem assays (depositor defined):AID2717, AID2721]; assay type: functional; settings: Homo sapiens
[15] = molecular target: T4, Rac GTPase-activating protein 1 (Homo sapiens, UniProt Q9H0H5); test: MgcRacGAP GTPase-activating activity inhibitors, confirmation, biochemical, ADP Hunter fluorescence, primary and confirmatory (AID 624330); assay type: functional
T4 sequence (Q9H0H5 whole entry): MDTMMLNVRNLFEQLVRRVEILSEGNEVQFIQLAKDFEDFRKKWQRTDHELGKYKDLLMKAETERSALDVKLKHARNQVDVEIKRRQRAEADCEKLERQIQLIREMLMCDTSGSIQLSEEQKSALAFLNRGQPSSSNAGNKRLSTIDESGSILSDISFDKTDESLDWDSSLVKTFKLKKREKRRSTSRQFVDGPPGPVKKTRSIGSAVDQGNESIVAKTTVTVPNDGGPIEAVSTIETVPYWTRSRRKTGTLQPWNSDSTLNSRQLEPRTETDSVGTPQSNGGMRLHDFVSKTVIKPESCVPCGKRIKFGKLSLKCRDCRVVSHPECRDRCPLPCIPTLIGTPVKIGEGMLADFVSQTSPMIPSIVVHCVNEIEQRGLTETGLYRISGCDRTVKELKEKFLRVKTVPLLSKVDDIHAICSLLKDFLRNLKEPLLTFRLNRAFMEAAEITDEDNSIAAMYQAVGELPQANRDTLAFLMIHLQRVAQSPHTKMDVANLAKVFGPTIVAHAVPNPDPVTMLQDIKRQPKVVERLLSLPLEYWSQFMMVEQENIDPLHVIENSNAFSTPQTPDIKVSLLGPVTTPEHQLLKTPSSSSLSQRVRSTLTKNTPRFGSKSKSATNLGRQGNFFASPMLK

Question: Which results are given for CSc1nc2c(=S)n(C)c(=O)n(C)c2[nH]1?
Answer: EC50 [1]: > 91.2 µM (inactive); EC50 [2]: > 91.2 µM (inactive)

Question: For O=C(CSc1nnc(-c2cc3ccccc3cc2O)n1Cc1ccco1)N1CCc2ccccc2C1, which IC50 [3] is on record?
Answer: 9.71 µM (active)

Question: And the IC50 [4]?
Answer: 30.6 µM (active)

Question: Which AC50 [5] does the source give for COc1ccc(C2c3ccc(O)cc3Oc3ncn4nc(-c5ccccn5)nc4c32)cc1OC (configuration not stated) here?
Answer: 122 µM (active)

Question: For O=C(N/N=C/c1ccsc1)c1ccccn1, which IC50 (cells) is on record?
Answer: > 67.5 µM (inactive)

Question: And the IC50 [6]?
Answer: > 67.5 µM (inactive)

Question: With CC(C)C(=O)Nc1ccc(C(=O)NNC(=S)NC(=O)c2ccco2)cc1 as the compound, how does the IC50 (Albumin) read?
Answer: > 94.1 µM (inactive)

Question: For CCCCn1c(=N)n(CC(=O)c2ccc(Br)s2)c2ccccc21, which IC50 [7] is on record?
Answer: 1.42 µM (active)

Question: What about the AC50 [8] of the same compound?
Answer: 7.45 µM (active)

Question: What about the AC50 (INS1) of the same compound?
Answer: 7.71 µM (active)

Question: What about the AC50 (A-375) of the same compound?
Answer: 30.3 µM (active)

Question: What does the source list for CCOC(=O)CSc1nc2ccccc2n1C(=O)OCC?
Answer: IC50 [9]: 21.1 µM (active); IC50 [10]: > 100 µM (inactive); IC50 (Prothrombin): 28.1 µM (active)

Question: Which IC50 [11] does the source give for C=CCNC(=S)NNC(=O)c1ccc(=O)n(Cc2ccc(Cl)cc2Cl)c1 here?
Answer: 281 µM (inactive)

Question: And the IC50 [12]?
Answer: 83.3 µM (inactive)

Question: And the IC50 [13]?
Answer: 13.4 µM (inactive)

Question: For C=CCn1c(CNc2ccccc2)nnc1SCC(=O)N/N=C/c1ccc(O)cc1O, which IC50 (Large T antigen) is on record?
Answer: > 100 µM (active)

Question: And the AC50 [14]?
Answer: 5.46 µM (active)

Question: And the IC50 [15]?
Answer: 68.8 µM (active)

Question: And the AC50 [5]?
Answer: 102 µM (active)
